The record followed here is PubChem BioAssay (NCI).

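Five compound concentrations were applied to cells in 96-well plates for 48 hours; endpoints were derived by simple linear interpolation of the resulting dose-response curve. GI50 marks 50% less growth. TGI is the concentration that stops growth completely.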 A value given as a limit tells only on which side of the number the result lay.

Among the test systems are CCRF-CEM leukemia; K-562 leukemia; MDA-MB-435; NCI/ADR-RES ovarian; SF-539 CNS; SK-OV-3 ovarian; TK-10 renal; M14 melanoma; NCI-H522 lung; RXF 393 renal.
Common to all, as to assay: growth of human tumour cells (NCI), 48 h

Take `O=c1c2c3c(sc2n2c(-c4ccc(Br)cc4)nnc2n1Cc1ccccc1)CCCC3`: the GI50 in the assay with CCRF-CEM leukemia is 2.98 µM; with K-562 leukemia, 23.8 µM; with MDA-MB-435, 14.2 µM; in the assay on NCI/ADR-RES ovarian, 12.8 µM; in the assay on SF-539 CNS, 11.9 µM; with SK-OV-3 ovarian, 5.88 µM. The GI50 in the assay with TK-10 renal was 7.94 µM. Moreover, the TGI in the assay on CCRF-CEM leukemia was 29.2 µM; in the assay with K-562 leukemia it was greater than 100 µM; with MDA-MB-435, 35.3 µM; with NCI/ADR-RES ovarian, 36 µM; with SF-539 CNS it was 32.3 µM; in the assay on SK-OV-3 ovarian, 18.8 µM. In the assay on TK-10 renal, this molecule yielded a TGI of 21.8 µM.

Take `O=C(NCCCCOCC#Cc1ccccc1C#CCS(=O)(=O)c1ccccc1)c1cc2ccccc2[nH]1`: the GI50 was 6.83 µM with K-562 leukemia; 12.1 µM with M14 melanoma; 10.6 µM with MDA-MB-435; 7.79 µM with NCI-H522 lung; 7.99 µM with NCI/ADR-RES ovarian; 12.2 µM in the assay on RXF 393 renal. For the same molecule, the values for the GI50 with SF-539 CNS, with SK-OV-3 ovarian and in the assay on TK-10 renal were 12.1 µM, 19.5 µM and 23.5 µM, respectively. In addition, the TGI with K-562 leukemia is greater than 50 µM; in the assay on M14 melanoma, 36.3 µM; in the assay with MDA-MB-435, 30.3 µM; with NCI-H522 lung, 16.4 µM; with NCI/ADR-RES ovarian, 25 µM; in the assay with RXF 393 renal it was 38.5 µM. The figures for the TGI in the assay with SF-539 CNS, with SK-OV-3 ovarian and with TK-10 renal were 26.8 µM, greater than 50 µM and greater than 50 µM, respectively.

In the case of `Oc1ccc(Cl)cc1-c1cc(-c2ccc(F)cc2)n[nH]1`, the GI50 was 0.452 µM in the assay on CCRF-CEM leukemia; 2.8 µM with K-562 leukemia; 3.5 µM in the assay on M14 melanoma; 2.53 µM in the assay on MDA-MB-435; 2.19 µM in the assay on NCI/ADR-RES ovarian; 2.83 µM with RXF 393 renal. Also, the GI50 with SF-539 CNS is 2.1 µM; with SK-OV-3 ovarian, 1.99 µM; in the assay with TK-10 renal, 3.23 µM. Further, the TGI is 4.12 µM in the assay on CCRF-CEM leukemia; 27.1 µM with K-562 leukemia; 17.2 µM with M14 melanoma; 10.7 µM in the assay with MDA-MB-435; 6.98 µM in the assay on NCI/ADR-RES ovarian; 7.82 µM with RXF 393 renal. The TGI in the assay with SF-539 CNS came out at 4.51 µM; in the assay on SK-OV-3 ovarian it was 5.21 µM; in the assay with TK-10 renal it was 8.74 µM.

Take `Cc1cc(O)cc2c1c(=O)c1ccccc1n2C`: the TGI with CCRF-CEM leukemia, in the assay on M14 melanoma, in the assay with MDA-MB-435, in the assay on NCI-H522 lung, with NCI/ADR-RES ovarian and in the assay with RXF 393 renal was greater than 100 µM in each case. The TGI with SF-539 CNS, in the assay with SK-OV-3 ovarian and with TK-10 renal was greater than 100 µM throughout.

As to `NS(=O)(=O)c1ccc(NC(=O)Nc2ccccc2F)cc1`, the TGI in the assay on K-562 leukemia, with M14 melanoma, in the assay on MDA-MB-435, in the assay on NCI-H522 lung, with NCI/ADR-RES ovarian and in the assay with RXF 393 renal was greater than 100 µM throughout. Besides, the TGI in the assay on SF-539 CNS, in the assay on SK-OV-3 ovarian and in the assay on TK-10 renal was greater than 100 µM in each case.

As to `COc1c(N2CCN(Cn3c(O)c(N=NC(=O)c4ccncc4)c4cc(F)ccc43)C(C)C2)c(F)cc2c(=O)c(C(=O)O)cn(C3CC3)c12` (centres undefined), the GI50 in the assay with K-562 leukemia was greater than 50 µM; in the assay with M14 melanoma it was 32.9 µM; in the assay on MDA-MB-435 it was greater than 50 µM; in the assay with NCI-H522 lung it was greater than 50 µM; in the assay with NCI/ADR-RES ovarian it was 29 µM; with RXF 393 renal, 8.44 µM. Moreover, the GI50 with SF-539 CNS is 14.6 µM; in the assay with SK-OV-3 ovarian, 39.8 µM; in the assay with TK-10 renal, 12.5 µM. Moreover, the TGI was greater than 50 µM with K-562 leukemia; greater than 50 µM in the assay on M14 melanoma; greater than 50 µM in the assay on MDA-MB-435; greater than 50 µM in the assay on NCI-H522 lung; greater than 50 µM with NCI/ADR-RES ovarian; 20.6 µM in the assay on RXF 393 renal. Moreover, the TGI in the assay with SF-539 CNS was greater than 50 µM; with SK-OV-3 ovarian it was greater than 50 µM; with TK-10 renal it was 37.2 µM.

In the case of `COc1cc([C@@H]2c3cc4c(cc3C(OC3O[C@@H]5COC(C)O[C@H]5[C@H](O)[C@H]3O)C3COC(=O)[C@@H]32)OCO4)cc(OC)c1O` (some centres undefined), the GI50 in the assay with K-562 leukemia is 1.53 µM; in the assay on M14 melanoma, 1.37 µM; in the assay on MDA-MB-435 it was 3.89 µM; in the assay on NCI-H522 lung it was 0.65 µM; with NCI/ADR-RES ovarian, 15.4 µM; in the assay on RXF 393 renal it was 0.982 µM. For the same molecule, the GI50 with SF-539 CNS is 0.635 µM; with SK-OV-3 ovarian, 1.58 µM; with TK-10 renal it was 3.56 µM. Besides, the TGI in the assay on K-562 leukemia is greater than 30.3 µM; with M14 melanoma, 7.83 µM; in the assay on MDA-MB-435 it was greater than 50 µM; in the assay on NCI-H522 lung it was 4.91 µM; with NCI/ADR-RES ovarian, greater than 50 µM; in the assay with RXF 393 renal, 8.31 µM. In addition, the TGI was 3.78 µM in the assay with SF-539 CNS, 14.2 µM in the assay on SK-OV-3 ovarian and 15.4 µM in the assay with TK-10 renal.

Turning to `Cc1cc(O)c(C(c2ccncc2)c2c(O)cc(C)[nH]c2=O)c(=O)[nH]1`, the TGI in the assay with CCRF-CEM leukemia, with K-562 leukemia, in the assay with M14 melanoma, in the assay with MDA-MB-435, in the assay with NCI-H522 lung and with NCI/ADR-RES ovarian was greater than 100 µM in each case. Further, the TGI in the assay with RXF 393 renal, in the assay with SK-OV-3 ovarian and in the assay on TK-10 renal was greater than 100 µM throughout.

With `Cc1cc(S(=O)(=O)Nc2nc3cc(Cl)ccc3o2)c(SCc2ccccc2)cc1Cl`, the GI50 in the assay with CCRF-CEM leukemia was 3.53 µM; in the assay with K-562 leukemia, 46.2 µM; in the assay with M14 melanoma, 22.1 µM; in the assay with MDA-MB-435 it was 21.5 µM; in the assay on NCI-H522 lung it was 17.4 µM; in the assay with NCI/ADR-RES ovarian, 28.5 µM. The results for the GI50 with RXF 393 renal, in the assay with SF-539 CNS and with TK-10 renal were 30.9 µM, 17.8 µM and 25.8 µM, respectively. For the same molecule, the TGI in the assay on CCRF-CEM leukemia was 16.2 µM; with K-562 leukemia, greater than 100 µM; in the assay with M14 melanoma it was 43.9 µM; in the assay on MDA-MB-435 it was 42 µM; in the assay with NCI-H522 lung it was 40.1 µM; in the assay with NCI/ADR-RES ovarian, 66.2 µM. For the same molecule, the TGI in the assay with RXF 393 renal was 58.5 µM; with SF-539 CNS it was 34.3 µM; in the assay with TK-10 renal, 55.1 µM.

Consider `CCCCOc1ccc(/C=N/Nc2cc(C)nc3ccc(Cl)cc23)cc1`, for which the GI50 with CCRF-CEM leukemia is 1.86 µM; with M14 melanoma, 1.89 µM; in the assay on MDA-MB-435 it was 1.73 µM; in the assay with NCI-H522 lung, 1.72 µM; in the assay with NCI/ADR-RES ovarian it was 1.73 µM; in the assay on RXF 393 renal it was 1.41 µM. The GI50 was 1.84 µM in the assay with SF-539 CNS, 1.8 µM in the assay with SK-OV-3 ovarian and 1.87 µM with TK-10 renal. The TGI with CCRF-CEM leukemia is 4.48 µM; in the assay on M14 melanoma it was 3.91 µM; with MDA-MB-435, 3.17 µM; in the assay on NCI-H522 lung, 3.29 µM; in the assay with NCI/ADR-RES ovarian it was 3.36 µM; in the assay with RXF 393 renal, 2.74 µM. In addition, the TGI with SF-539 CNS came to 3.28 µM; in the assay on SK-OV-3 ovarian it was 3.27 µM; with TK-10 renal, 3.28 µM.
